Literature values, collected in patent publication US20070014834A1, “Apparatus and methods of improved delivery of orally-administered therapeutic substances” (priority 2005, published 2007).

Key:
capsaicin-induced cough = details: for concentration of capsaicin required to produce a cough, compared with placebo: 10 healthy volunteers
[1] = tested on: citric acid-induced cough; details: guinea-pigs in vivo

SMILES | concentration of capsaicin required to produce a cough, compared with placebo (capsaicin-induced cough) | inhibition of capsaicin-induced sensory nerve depolarization (human vagus nerve) | inhibition of capsaicin-induced sensory nerve depolarization (guinea-pig vagus nerve) | inhibition of citric acid-induced cough [1] | effectiveness in stopping persistent coughs compared with codeine (capsaicin-induced cough; compared with codeine) | suppression of capsaicin-induced cough (capsaicin-induced cough; randomized, double-blind, placebo-controlled study in man)
COc1ccc2c3c1O[C@H]1[C@@H](O)C=C[C@H]4[C@@H](C2)N(C)CC[C@@]341 [codeine] | only marginally higher | – | – | – | – | –
Cn1cnc2c1c(=O)[nH]c(=O)n2C [theobromine] | around one third higher | directly inhibits | directly inhibits | effectively inhibits | nearly a third more effective | suppresses
